Source: patent publication US20240217954A1, “CRYSTAL FORM IV OF ORGANIC ACID SALTS OF MELANOCORTIN RECEPTOR AGONIST COMPOUND, AND PREPARATION METHOD THEREOF” (LG CHEM, LTD., priority 2021, published 2024)
Where two headings read alike, the source gives them in different places.

Assay: Solubility assessment: visual, by final volume of water added until the sample is completely dissolved
Protocol: Solubility indicates the result of measurement based on the final volume of water added to a sample when it is visually confirmed that the sample is completely dissolved by adding water to the sample. The solubility of the actual sample may be higher than the measured solubility. Solubility was measured based on the final volume of water added to a sample when it was visually confirmed that the sample was completely dissolved by adding water to the sample.

[1] = in water, visual complete dissolution, actual solubility may be higher than measured

Row | SMILES | solubility [1] | solubility
1 | CC(O)C(=O)O.CC1CCC(N(C(=O)C(C)C)[C@H]2C[C@@H](C(=O)N3CCOCC3)N(C(=O)[C@@H]3CN(C(C)(C)C)C[C@H]3c3ccc(Cl)cc3)C2)CC1 (stereo partly drawn) [Example 1, N-((3S,5S)-1-((3S,4R)-1-(tert-butyl)-4-(4-chlorophenyl)pyrrolidine-3-carbonyl)-5-(morpholine-4-carbonyl)pyrrolidin-3-yl)-N-((1 s,4R)-4-methylcyclohexyl)isobutyramide lactate] | more than 24 mg/mL | –
2 | CC(C)C(=O)N([C@H]1C[C@@H](C(=O)N2CCOCC2)N(C(=O)[C@@H]2CN(C(C)(C)C)C[C@H]2c2ccc(Cl)cc2)C1)[C@H]1CC[C@@H](C)CC1.O=S(=O)(O)c1ccccc1 [Example 2, N-((3S,5S)-1-((3S,4R)-1-(tert-butyl)-4-(4-chlorophenyl)pyrrolidine-3-carbonyl)-5-(morpholine-4-carbonyl)pyrrolidin-3-yl)-N-((1 s,4R)-4-methylcyclohexyl)isobutyramide benzene sulfonate] | more than 1 mg/mL | –
3 | CC(C)C(=O)N([C@H]1C[C@@H](C(=O)N2CCOCC2)N(C(=O)[C@@H]2CN(C(C)(C)C)C[C@H]2c2ccc(Cl)cc2)C1)[C@H]1CC[C@@H](C)CC1.Cc1ccc(S(=O)(=O)O)cc1 [Example 3, N-((3S,5S)-1-((3S,4R)-1-(tert-butyl)-4-(4-chlorophenyl)pyrrolidine-3-carbonyl)-5-(morpholine-4-carbonyl)pyrrolidin-3-yl)-N-((1 s,4R)-4-methylcyclohexyl)isobutyramide toluene sulfonate] | – | more than 10 mg/mL
